Reference: a melting point compilation (Tetko et al.; mined from patent text by program, amines drawn as free bases though some values may be those of a salt)

| melting point [°C] | Compound |
| --- | --- |
| 97 to 99 | CC(C)c1c(CO)c(-c2ccc(F)cc2)c2n1CCCC2 |
| 237 to 239 | CN(C(=O)c1nnc2ccccc2c1O)c1ccccn1 |
| 211 to 212 | CCc1nc2c(N)nc3cc(OCc4nc5ccccc5s4)ccc3c2s1 |
| 142 to 144 | O=C(NCc1ccncc1)c1cccnc1Oc1cccnc1 |
| 84 to 86 | CCCc1c(OCCCOc2cccc(C(=O)NCCCCc3cccnc3)c2)ccc(C(C)=O)c1O |
| 120 to 122 | N#CCCN(N)c1cc2ccccc2[nH]1 |
| 71 to 72 | CC1CC2(CC(C)(C)C1=O)OC(C)C(C)O2 (stereo not given) |
| 184 to 185 | Cc1ccccc1C(=O)OCC1OC(N2CN(C)C(=O)NC2=O)CC1OC(=O)c1ccccc1C (stereo not given) |
| 180 to 182 | O=c1c2cnn(Cc3ccccc3)c2nc2n1CCS2 |
| < 50 | CCN(CC)C(=O)c1c(C=O)ccnc1OC |
| 77 to 78 | Cc1c(Br)ccc(C=NO)c1Cl |
| 170 to 171 | Cc1c(Cc2ccc(C(C)C)cc2)c2c(c(C)c1NC(=O)CC(C)(C)C)CC(C)(C)O2 |
| 82 to 84 | CC(C)(C#N)c1cc(Cc2cccnc2)cc(C(C)(C)C#N)c1 |
| 112 to 115 | Cn1c(C(F)(F)F)cc(=O)n(-c2cc(OC(=O)Oc3ccccc3)c(Cl)cc2F)c1=O |
| 75 to 76 | CCOC(=O)C(=CNNc1c(Cl)cc(C(F)(F)F)cc1Cl)C(C)=O |
| 213 to 231 | Nc1ccn(C2CCCCC2)c(=O)n1 |
| 188 to 190 | CC=C(NC(=O)C1CC1(Cl)Cl)C(=O)O (stereo not given) |
| 117 to 118 | O=C(O)CCCCCCCC(=O)Nc1cc(Cl)ccc1O |
| 289 to 290 | N#CC(C(=O)Nc1cccc(Br)c1)C(=O)c1nn(-c2ccccc2)c2c1Cc1ccccc1-2 (stereo not given) |
| 76 | CCOC(=O)C(C)(C)Oc1ccc(CCNC(=O)C=Cc2ccccc2Cl)cc1 |
| 140 to 142 | Cc1c(C(=O)c2ccccc2)c(NC(=O)CNO)cn1C |

| melting point [°C] | Compound |
| --- | --- |
| 56.5 to 58.5 | CC(C)S(=O)(=O)c1nc(OS(C)(=O)=O)cs1 |
| 102 | CC(=CN=Cc1ccccc1Cl)c1cccs1 |
| 163 to 164 | CCCCNC(=O)NCCOc1ccc2c(ccn2Cc2ccc(Cl)cc2)c1 |
| 172 to 175 | Oc1ccc(-c2nnc(CSCCOc3ccccc3)o2)cc1 |
| 99 to 100 | COc1ccc(C=Cc2ccc(CBr)cc2)c(Cl)c1 |
| 294 to 298 | CN(C)c1ccc(C=C2SC(N3CCCC3)=NC2=O)cc1-c1cc(F)c(O)c(C23CC4CC(CC(C4)C2)C3)c1 |
| 259 to 262 | Cc1cccc(Cc2ccc(-c3cnn4c(O)ncnc34)cc2C)c1 |
| 91 to 93 | CCOC(=O)C(C)c1ccc2c(c1)C(=O)c1ccccc1CS2 (stereo not given) |
| 169 to 170 | CC(C)C1Cc2cnc3c(c2C1(O)CC#N)CCO3 (stereo not given) |
| 142 to 144 | COc1ccc2[nH]c(SCc3cc(N4CCOCC4)c(F)cn3)nc2c1 |
| 109 to 110 | COc1cc2c(cc1OCc1ccccc1)C(C#N)(Sc1ccccc1)C2 (stereo not given) |
| 149 | CC(=O)OC1CSC(Oc2cncc(-c3cccnc3)c2)C(OC(C)=O)C1OC(C)=O (stereo not given) |
| 100 to 103 | CO[C@@H]1OC(C)(C)O[C@@]1(C)c1cccc(OCc2ccc3ccccc3c2)c1 (racemic) |
| 41 to 42 | COC(=O)CCCCCSC1=CC(OC2CCCCO2)CC1=O (stereo not given) |
| 274 to 276 | Cn1ncc2c(=O)n3c(nc21)SC(C(=O)O)C3 (stereo not given) |
| 120 to 122 | C#Cc1cn(-c2c(Cl)cc(C(F)(F)F)cc2Cl)c2ccccc12 |
| 146 to 147 | COc1ccc(Cn2c(=O)c3c(c4ccccc42)OC(C)(C)[C@@H](Br)[C@@H]3O)cc1 (relative stereo) |
| 280 to 282 | c1cnc2c(c1)cc(-c1nnn[nH]1)c1nnnn12 |
| 200 | Cn1cc(-c2ccc3nnc(C(F)(F)c4ccc5ncccc5c4)n3n2)cn1 |
| 218 to 222 | CC(=O)Nc1ccccc1CSc1nc2ccccc2[nH]1 |
| 147 to 148 | C=CCOc1ccccc1OCC(O)CNCCOc1ccc(O)c(C(N)=O)c1 (stereo not given) |

The remaining lines, values behind:

| Compound | melting point [°C] |
| --- | --- |
| OCCNc1nc(NCc2ccccc2)c2ncc(Nc3ncccn3)cc2n1 | 141 to 142 |
| Cn1cc2c(n1)c(N)nc1ccccc12 | 218 to 219 |
| N#Cc1ccc(-c2ccc(-c3ccn([C@H](CC(=O)OCc4ccccc4)C(=O)N[C@H](CO)Cc4ccccc4)c3)cc2)cc1 | 149 to 150 |
| c1ccc2c(c1)c1ccccc1n2-c1ccc2c(c1)Oc1ccc(-n3c4ccccc4c4ccccc43)cc1O2 | 348 |
| CCCCc1nn(Cc2ccc(-c3ccccc3-c3nnn[nH]3)cc2)c(=O)n1Cc1ccc(-c2ccccc2-c2nnn[nH]2)cc1 | 150 to 151 |
| Cc1cc(CCCCCOc2cc(Cl)c(-c3nnco3)c(Cl)c2)on1 | 73 to 74 |
| COc1nc2ccccc2cc1NC(=O)N1CCN(c2cccc(OCC3CC3)c2)CC1 | 146 to 147 |
| Cc1nnc2n1-c1ccc(I)cc1C(c1ccccc1Cl)=NC2 | 290 to 292 |
| O=[N+]([O-])c1ccccc1Cc1n[nH]c(Cl)n1 | 160 to 163 |
| COCOCCCOn1cnc2cnc(NC=O)nc21 | 115 to 116 |
| CC(C)(C)[Si](C)(C)Oc1ccc(NC(=O)CN2CCC(O)(Cc3ccc(Cl)cc3)CC2)cc1 | 135 to 136 |
| CN(C)CCNC(=O)Cn1c(-c2ccc(Cl)cc2)nc2cccnc21 | 195 to 196 |
| COC(=O)/C(=C/C=C/c1cc2ccccc2o1)OC | 108 |
| C=CCN(CC=C)c1ccc2[nH]c3cnc(C(=O)OCC)nc3c2c1 | 188 to 190 |
| COC(=O)c1ccc(Cl)cc1NC(=O)CSc1ccccc1C | 88 to 89 |
| COc1ccc(NC(=O)C(=O)c2c3n(c4ccccc24)CCNCC3)cc1 | 177 to 180 |
| CC(=O)c1cccc(-c2ccc(OC3SCC(O)C(O)C3O)cn2)c1 (stereo not given) | 159 to 163 |
| CCCCOc1ccc(COC(=O)C(=O)OCc2ccc(OCCCC)cc2)cc1 | 114 |
| O=C(Nc1ccccc1)NC1CCN2CCc3ccccc3C2C1 (stereo not given) | 210 |
| O=c1n(-c2ccccc2)nc2n1-c1ccccc1Oc1ccccc1-2 | 176 to 177 |

| Compound | melting point [°C] |
| --- | --- |
| Clc1nc2c(-c3ccccc3)cccc2o1 | 85.8 |
| CS(=O)(=O)c1ccc(-n2cncc2-c2ccccc2F)cc1 | 188 to 189 |
| Cc1c(CN2C(=O)c3ccccc3C2=O)cccc1C(F)(F)C(F)(F)c1ccccc1 | 135 to 137 |
| COC(=O)C1=C(C)NC(C)=C(C(=O)OC(C)CCl)C1c1cccc([N+](=O)[O-])c1 (stereo not given) | 95 to 102 |
| CCCc1noc(-c2ncn3c2[C@@H]2CCCN2C(=O)c2c(Cl)cccc2-3)n1 | 176 to 178 |
| CC(C)N(CCc1c[nH]c2cc(Cl)ccc12)Cc1cccc(OCC(F)(F)C(F)(F)F)c1 | 77 to 80.2 |
| C(=Nc1c2c(nc3ccccc13)CCCC2)c1ccccc1 | 168 to 169 |
| CCOC(=O)Nc1ccc(OCCCCl)cc1 | 91 to 93 |
| CCOCc1nc2c(N)nc3cc(-c4ccccc4)ccc3c2n1CC(C)(C)O | 211 to 212 |
| Cc1nc(-c2ccc(C(F)(F)F)cc2)sc1CSc1cc(C(C)C)c(OCC(=O)O)c(C(C)C)c1 | 161 to 163 |
| Cn1c(=Nc2nc(C(Cl)(Cl)Cl)nc(C(Cl)(Cl)Cl)n2)sc2ccccc21 | 251 to 253 |
| Cc1c2c3c(ccc2nn1C)CCC3=CC#N | 200 to 203 |
| O=C(O)c1cccc2c1S(=O)(=O)c1ccccc1C2=O | 237 |
| Cc1c(Sc2cccnc2)sc2ccc(Br)cc12 | 86 to 87 |
| CCCn1nc(-c2ccc(O)c(F)c2)c2cccc(-c3ccccc3)c21 | 177 to 178 |
| CN1CCN(c2cc3c(cc2F)c(=O)c(C(=O)O)cn3NCC=O)CC1 | 252 to 253 |
| COC(=O)c1ccc(-c2ccc3nnn(Cc4cc5cccnc5cc4F)c3n2)cc1F | 213 to 215 |
| Nc1ccnc(SCc2ccccn2)n1 | 133 to 134 |
| COc1ccc(N2CCOCC2)c2sc(NC(=O)N3CC4CC[C@@](C)(C3)C4(C)C)nc12 | 185 to 189 |
| COc1ccc(SC2CC(=O)N2CC(=O)NCCCCCCc2ccc(Cl)cc2)cc1 (stereo not given) | 84 to 86 |

| Compound | melting point [°C] |
| --- | --- |
| CCCC(=O)Oc1ccc(C(=O)Nc2ccc3cc(CN4CCCC4)cnc3c2C)cc1 | 156 to 158 |
| CCO[PH](=O)C#Cc1c(C(C)C)c2ccccc2n1-c1ccc(F)cc1 (stereo not given) | 80 to 82.5 |
| O=C(COc1cc(-c2ccccc2)nc2cccc(Cl)c12)N1CCOCC1 | 168 |
| O=C(CCCCCCCCCCS(=O)c1ccccc1[N+](=O)[O-])OCc1ccccc1 (stereo not given) | 37 to 38 |
| COC(=O)C1=C(NCc2ccccc2)C(=O)O[C@@H]1C | 68 to 70 |
| CCCCCCCCCCCCCCCc1cc(OCC(COC(=O)NCCCCCn2cnnn2)Oc2cc(C)on2)no1 (racemic) | 82 to 84 |
| CCCC(Cc1ccc(OCCN2CCCCCC2)cc1)(C(=O)O)S(=O)(=O)c1ccc(OC)cc1 (stereo not given) | 55 |
| COC(=O)c1cc(Br)c(OC)cc1O | 122 to 124 |
| CN1CCC(N2C(=O)c3ccccc3Oc3ccccc32)CC1 | 173 to 174 |
| CC(C)Cn1c(CNC(=O)OC(C)(C)C)c(-c2ccccc2)c2cc(C(N)=S)ccc2c1=O | 228 to 229 |
| Fc1ccc(OC2CCN(CCc3c[nH]c4ccc(OCc5ccccc5)cc34)CC2)cc1 | 134 to 136 |
| CCCCNS(=O)(=O)c1cccc(NC(=O)NS(=O)(=O)c2ccc(C)cc2)c1 | 153 |
| Cc1cccc(-c2oc3c(C(=O)NCCCN4CCCCC4)cccc3c(=O)c2C)c1 | 112 to 114 |
| O=C1C[C@H](O)C[C@@H](/C=C/c2cnc3ccccc3c2-c2cccs2)O1 | 102 to 104 |
| CC(=O)OCC(C)(C)c1ccc(S(N)(=O)=O)cc1 | 156 to 158 |
| CCC(=O)N(Cc1ccc(OC)cc1)c1cc(F)cc(-c2nnn[nH]2)c1 | 158 to 160 |
| CC(C)=C1CCC2(C1)C(=O)C=C(OC(C)C)CC2C (stereo not given) | 77 to 77.5 |
| O=CCCCCC(c1cc(F)ccc1F)S(=O)(=O)c1ccc(Cl)cc1 (stereo not given) | 135 to 136 |
